Read-outs that look alike come from different tables or passages of the source.
Target: T1, STAT6 (Homo sapiens, UniProt P42226)
T1 construct: endogenous in cells; host or cells: MOLM-16, KU-812, SKNO1, MB231, L1236
T1 sequence (P42226 1-847): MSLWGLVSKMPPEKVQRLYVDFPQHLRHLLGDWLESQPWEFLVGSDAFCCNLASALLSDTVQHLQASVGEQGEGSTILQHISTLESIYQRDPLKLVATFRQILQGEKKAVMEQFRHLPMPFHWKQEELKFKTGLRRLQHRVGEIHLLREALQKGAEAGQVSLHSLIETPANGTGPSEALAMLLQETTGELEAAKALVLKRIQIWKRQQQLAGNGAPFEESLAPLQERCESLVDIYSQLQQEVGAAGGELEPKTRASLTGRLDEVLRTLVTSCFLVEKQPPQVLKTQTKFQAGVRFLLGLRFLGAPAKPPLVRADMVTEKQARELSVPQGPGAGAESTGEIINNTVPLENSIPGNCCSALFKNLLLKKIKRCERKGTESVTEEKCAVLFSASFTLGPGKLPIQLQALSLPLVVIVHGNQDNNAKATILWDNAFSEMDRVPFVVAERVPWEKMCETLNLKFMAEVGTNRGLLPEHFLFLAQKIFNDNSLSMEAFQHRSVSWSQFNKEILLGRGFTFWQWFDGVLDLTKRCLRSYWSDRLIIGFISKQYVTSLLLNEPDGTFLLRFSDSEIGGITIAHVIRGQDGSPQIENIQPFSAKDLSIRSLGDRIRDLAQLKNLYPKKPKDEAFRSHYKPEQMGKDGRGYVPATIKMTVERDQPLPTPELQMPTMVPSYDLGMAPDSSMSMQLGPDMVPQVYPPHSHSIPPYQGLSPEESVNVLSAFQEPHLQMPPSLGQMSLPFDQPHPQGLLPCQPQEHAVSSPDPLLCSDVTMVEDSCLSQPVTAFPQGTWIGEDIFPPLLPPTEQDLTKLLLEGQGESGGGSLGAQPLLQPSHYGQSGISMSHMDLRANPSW
Experiment: Immunoblotting (Western blot) analysis of STAT6 degradation efficiency of degraders in treated cells
Assay type: cell-based
Procedure, shortened: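 About 1 million cells per point, grown in 10% FBS medium at 37 °C/5% CO2, were exposed to compound at the indicated concentrations and times, then lysed in RIPA buffer with protease and phosphatase inhibitors. Equal protein (20-40 μg) was resolved by SDS-PAGE, blotted to PVDF, and probed with anti-STAT5, anti-STAT6 and anti-GAPDH antibodies.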

[1] = MOLM-16 cells, class symbols, read-out: DC50 S6 MOLM-16
[2] = L1236 cells, read-out: DC50 S6 L1236

Row | Structure (SMILES) | DC50 [1] [µM] | DC50 [2] [µM] | DC50 (MB231 cells, read-out: DC50 S6 MB231) [µM]
1 | CC(C)(C)[C@H](NC(=O)c1cc2cc(C(F)(F)P(=O)(O)O)ccc2s1)C(=O)N1C[C@@H](OCC(=O)NCCCCCCCCCC#Cc2ccc3c(c2)C(=O)N(C2CCC(=O)NC2=O)C3=O)C[C@H]1C(=O)N1CCO[C@H](c2ccccc2)C1 (stereo partly drawn) [Compound 492, ((2-(((2S)-1-((2S,4S)-4-(2-((11-(2-(2,6-dioxopiperidin-3-yl)-1,3-dioxoisoindolin-5-yl)undec-10-yn-1-yl)amino)-2-oxoethoxy)-2-((R)-2-phenylmorpholine-4-carbonyl)pyrrolidin-1-yl)-3,3-dimethyl-1-oxobutan-2-yl)carbamoyl)benzo[b]thiophen-5-yl)difluoromethyl)phosphonic acid] | > 10 | – | –
2 | Cc1cc([C@H](C(=O)N2C[C@H](O)C[C@H]2C(=O)N[C@@H](CC(=O)NCCOCCOCCNC(=O)CO[C@@H]2C[C@@H](C(=O)N(C)c3ccc(Br)cc3)N(C(=O)[C@@H](NC(=O)c3cc4cc(C(F)(F)P(=O)(O)O)ccc4s3)C(C)(C)C)C2)c2ccc(-c3scnc3C)cc2)C(C)C)on1 [Compound 424, ((2-(((S)-1-((2S,4R)-2-((4-bromophenyl)(methyl)carbamoyl)-4-(((S)-1-((2S,4R)-4-hydroxy-1-((R)-3-methyl-2-(3-methylisoxazol-5-yl)butanoyl)pyrrolidin-2-yl)-3-(4-(4-methylthiazol-5-yl)phenyl)-1,5,16-trioxo-9,12-dioxa-2,6,15-triazaheptadecan-17-yl)oxy)pyrrolidin-1-yl)-3,3-dimethyl-1-oxobutan-2-yl)carbamoyl)benzo[b]thiophen-5-yl)difluoromethyl)phosphonic acid] | > 10 | – | –
3 | Cc1ncsc1-c1ccc([C@H](C)NC(=O)[C@@H]2C[C@@H](O)CN2C(=O)[C@@H](NC(=O)CCCCCNC(=O)CO[C@H]2C[C@@H](C(=O)N3CCC[C@H](c4ccccc4)C3)N(C(=O)[C@@H](NC(=O)c3cc4cc(C(F)(F)P(=O)(O)O)ccc4s3)C(C)(C)C)C2)C(C)(C)C)cc1 [Compound 438, (difluoro(2-(((S)-1-((2S,4S)-4-(2-((6-(((S)-1-((2S,4R)-4-hydroxy-2-(((S)-1-(4-(4-methylthiazol-5-yl)phenyl)ethyl)carbamoyl)pyrrolidin-1-yl)-3,3-dimethyl-1-oxobutan-2-yl)amino)-6-oxohexyl)amino)-2-oxoethoxy)-2-((R)-3-phenylpiperidine-1-carbonyl)pyrrolidin-1-yl)-3,3-dimethyl-1-oxobutan-2-yl)carbamoyl)benzo[b]thiophen-5-yl)methyl)phosphonic acid] | > 10 | > 10 | –
4 | Cc1ncsc1-c1ccc([C@H](C)NC(=O)[C@@H]2C[C@@H](O)CN2C(=O)[C@@H](NC(=O)CCCCCCCCNC(=O)COc2ccc3c(c2)CN(C(=O)[C@@H](NC(=O)c2cc4cc(C(F)(F)P(=O)(O)O)ccc4s2)C(C)(C)C)[C@H](C(=O)N2CCC[C@H](c4ccccc4)C2)C3)C(C)(C)C)cc1 [Compound 477, (difluoro(2-(((S)-1-((S)-7-(2-((9-(((S)-1-((2S,4R)-4-hydroxy-2-(((S)-1-(4-(4-methylthiazol-5-yl)phenyl)ethyl)carbamoyl)pyrrolidin-1-yl)-3,3-dimethyl-1-oxobutan-2-yl)amino)-9-oxononyl)amino)-2-oxoethoxy)-3-((R)-3-phenylpiperidine-1-carbonyl)-3,4-dihydroisoquinolin-2(1H)-yl)-3,3-dimethyl-1-oxobutan-2-yl)carbamoyl)benzo[b]thiophen-5-yl)methyl)phosphonic acid] | > 10 | – | –
5 | CC(C)(C)[C@H](NC(=O)c1cc2cc(C(F)(F)P(=O)(O)O)ccc2s1)C(=O)N1Cc2cc(OCC(=O)NCCCCCC#Cc3cccc4c3C(=O)N(C3CCC(=O)NC3=O)C4=O)ccc2C[C@H]1C(=O)N1CCO[C@H](c2ccccc2)C1 (stereo partly drawn) [Compound 543, ((2-(((2S)-1-((3S)-7-(2-((7-(2-(2,6-dioxopiperidin-3-yl)-1,3-dioxoisoindolin-4-yl)hept-6-yn-1-yl)amino)-2-oxoethoxy)-3-((R)-2-phenylmorpholine-4-carbonyl)-3,4-dihydroisoquinolin-2(1H)-yl)-3,3-dimethyl-1-oxobutan-2-yl)carbamoyl)benzo[b]thiophen-5-y)difluoromethyl)phosphonic acid] | > 10 | – | –
6 | O=C1CCC(N2Cc3c(C#CCCCCCC(=O)N4CC[C@H]5CC[C@@H](C(=O)N6CCOC(c7ccc(F)c(Cl)c7)C6)N5C(=O)[C@@H](NC(=O)c5cc6cc(C(F)(F)P(=O)(O)O)ccc6s5)C4)cccc3C2=O)C(=O)N1 (stereo partly drawn) [Compound 564, ((2-(((5S,8S,10aR)-8-(2-(3-chloro-4-fluorophenyl)morpholine-4-carbonyl)-3-(8-(2-(2,6-dioxopiperidin-3-yl)-1-oxoisoindolin-4-yl)oct-7-ynoyl)-6-oxodecahydropyrrolo[1,2-a][1,5]diazocin-5-yl)carbamoyl)benzo[b]thiophen-5-yl)difluoromethyl)phosphonic acid] | > 10 | > 10 | –
7 | CC(C)(C)[C@H](NC(=O)c1cc2cc(C(F)(F)P(=O)(O)O)ccc2s1)C(=O)N1C[C@@H](OCCCCCCCC#Cc2cccc3c2CN(C2CCC(=O)NC2=O)C3=O)C[C@H]1C(=O)N1CCO[C@H](c2ccccc2)C1 (stereo partly drawn) [Compound 595, ((2-(((2S)-1-((2S,4S)-4-((9-(2-(2,6-dioxopiperidin-3-yl)-1-oxoisoindolin-4-yl)non-8-yn-1-yl)oxy)-2-((R)-2-phenylmorpholine-4-carbonyl)pyrrolidin-1-yl)-3,3-dimethyl-1-oxobutan-2-yl)carbamoyl)benzo[b]thiophen-5-yl)difluoromethyl)phosphonic acid] | < 0.1 | – | –
8 | CC(C)(C)[C@H](NC(=O)c1cc2cc(C(F)(F)P(=O)(O)O)ccc2s1)C(=O)N1CCN(C(=O)CC(=O)NCCCCCCCCC#Cc2cccc3c2C(=O)N(C2CCC(=O)NC2=O)C3=O)C[C@H]1C(=O)N1CCC[C@H](c2ccccc2)C1 (stereo partly drawn) [Compound 531, ((2-(((2S)-1-((2S)-4-(3-((10-(2-(2,6-dioxopiperidin-3-yl)-1,3-dioxoisoindolin-4-yl)dec-9-yn-1-yl)amino)-3-oxopropanoyl)-2-((R)-3-phenylpiperidine-1-carbonyl)piperazin-1-yl)-3,3-dimethyl-1-oxobutan-2-yl)carbamoyl)benzo[b]thiophen-5-yl)difluoromethyl)phosphonic acid] | > 10 | – | –
9 | Cc1ncsc1-c1ccc(CNC(=O)[C@@H]2C[C@@H](O)CN2C(=O)[C@@H](NC(=O)CCCCNC(=O)CO[C@@H]2C[C@@H](C(=O)N(C)c3ccc(Br)cc3)N(C(=O)[C@@H](NC(=O)c3cc4cc(C(F)(F)P(=O)(O)O)ccc4s3)C(C)(C)C)C2)C(C)(C)C)cc1 [Compound 416, ((2-(((S)-1-((2S,4R)-2-((4-bromophenyl)(methyl)carbamoyl)-4-(2-((5-(((S)-1-((2S,4R)-4-hydroxy-2-((4-(4-methylthiazol-5-yl)benzyl)carbamoyl)pyrrolidin-1-yl)-3,3-dimethyl-1-oxobutan-2-yl)amino)-5-oxopentyl)amino)-2-oxoethoxy)pyrrolidin-1-yl)-3,3-dimethyl-1-oxobutan-2-yl)carbamoyl)benzo[b]thiophen-5-yl)difluoromethyl)phosphonic acid] | – | > 10 | > 10
10 | CC(C)(C)[C@H](NC(=O)c1cc2cc(C(F)(F)P(=O)(O)O)ccc2s1)C(=O)N1Cc2cc(OCC(=O)NCCC#Cc3cccc4c3C(=O)N(C3CCC(=O)NC3=O)C4=O)ccc2C[C@H]1C(=O)N1CCO[C@H](c2ccccc2)C1 (stereo partly drawn) [Compound 537, ((2-(((2S)-1-((3S)-7-(2-((4-(2-(2,6-dioxopiperidin-3-yl)-1,3-dioxoisoindolin-4-yl)but-3-yn-1-yl)amino)-2-oxoethoxy)-3-((R)-2-phenylmorpholine-4-carbonyl)-3,4-dihydroisoquinolin-2(1H)-yl)-3,3-dimethyl-1-oxobutan-2-yl)carbamoyl)benzo[b]thiophen-5-yl)difluoromethyl)phosphonic acid] | > 10 | – | –
11 | Cc1ncsc1-c1ccc([C@H](C)NC(=O)[C@@H]2C[C@@H](O)CN2C(=O)[C@@H](NC(=O)CCCCCCNC(=O)COc2ccc3c(c2)CN(C(=O)[C@@H](NC(=O)c2cc4cc(C(F)(F)P(=O)(O)O)ccc4s2)C(C)(C)C)[C@H](C(=O)N2CCC[C@H](c4ccccc4)C2)C3)C(C)(C)C)cc1 [Compound 475, (difluoro(2-(((S)-1-((S)-7-(2-((7-(((S)-1-((2S,4R)-4-hydroxy-2-(((S)-1-(4-(4-methylthiazol-5-yl)phenyl)ethyl)carbamoyl)pyrrolidin-1-yl)-3,3-dimethyl-1-oxobutan-2-yl)amino)-7-oxoheptyl)amino)-2-oxoethoxy)-3-((R)-3-phenylpiperidine-1-carbonyl)-3,4-dihydroisoquinolin-2(1H)-yl)-3,3-dimethyl-1-oxobutan-2-yl)carbamoyl)benzo[b]thiophen-5-yl)methyl)phosphonic acid] | > 10 | – | –

Reference: patent publication US20230295197A1, “STAT5 and STAT6 Degraders and Uses Thereof” (REGENTS OF THE UNIVERSITY OF MICHICAN, priority 2022, published 2023)
